# Measurements from the PolyMetriX glass transition set.
row,Structure (SMILES),glass transition temperature [°C]
1,*CC(OC)C1(C)C(=O)OC(=O)C1(*)C (repeat unit),260.00
2,*OC1CCCCC1OC(*)=O (repeat unit),117.30
3,*OP(=O)(Oc1ccc(NC(=O)OCCCCCCOC(=O)Nc2ccc(*)cc2)cc1)c1ccccc1 (repeat unit),-3.00
4,*CCN1C(=O)c2ccc(C(c3ccc4c(c3)C(=O)N(*)C4=O)(C(F)(F)F)C(F)(F)F)cc2C1=O (repeat unit),180.00
5,*c1cc(-c2sc(-c3cc(CCCCCCC)c(*)s3)cc2CCCCCCC)c2cccccc1-2 (repeat unit),56.00
6,*c1ccc(C2(c3ccc(-c4cc(-c5ccccc5)c5cc(C6(c7ccc8nc(*)cc(-c9ccccc9)c8c7)c7ccccc7-c7ccccc76)ccc5n4)cc3)c3ccccc3-c3ccccc32)cc1 (repeat unit),390.00
7,*c1ccc(-c2sc(-c3cc(CCCCCCCC)c(*)s3)cc2CCCCCCCC)cc1 (repeat unit),50.40
8,*/C=C/C1CC(*)C2C(=O)N(c3cc(C(F)(F)F)cc(C(F)(F)F)c3)C(=O)C12 (repeat unit),162.00
9,*CC(*)c1cccs1 (repeat unit),71.00
10,*C(=O)CCCCCCCCC(=O)N1CCN(*)CC1 (repeat unit),82.00

# Next, values leading:
row,glass transition temperature [°C],Structure (SMILES)
1,70.00,*CCCOC(=O)OCCCCCCOC(=O)OCCCN1C(=O)c2ccc(C(=O)c3ccc4c(c3)C(=O)N(*)C4=O)cc2C1=O (repeat unit)
2,235.40,*c1ccc2c(c1)C(=O)N(c1ccc(C(C)(C)c3ccc(C(C)(C)c4ccc(N5C(=O)c6ccc(C(*)(C(F)(F)F)C(F)(F)F)cc6C5=O)cc4)cc3)cc1)C2=O (repeat unit)
3,298.00,*c1ccc(Oc2ccc(-c3cccc(-c4ccc(Oc5ccc(-c6c7c(c(*)c8ccccc68)C(=O)N(c6ccccc6)C7=O)cc5)c(C(F)(F)F)c4)n3)cc2C(F)(F)F)cc1 (repeat unit)
4,137.00,*OC(COC(=O)c1cc(C(*)=O)cc(C(C)(C)C)c1)COc1ccc(/N=N/c2ccc(C#N)cc2)cc1 (repeat unit)
5,127.00,*CC(O)CN(C)S(=O)(=O)c1cccc(S(=O)(=O)N(C)CC(O)COc2ccc(C3(c4ccc(O*)cc4)c4ccccc4-c4ccccc43)cc2)c1 (repeat unit)
6,102.00,*Oc1ccc(OC(=O)c2ccc(C(*)=O)cc2Oc2ccc3ccccc3c2)cc1 (repeat unit)
7,417.00,*c1ccc(-n2c(=O)c3cc4c(=O)n(*)c(=O)c4cc3c2=O)cc1 (repeat unit)
8,112.00,*CCCCCCNC(=O)c1ccc(C(=O)N*)c(Oc2ccc(Cl)cc2)c1 (repeat unit)
9,125.00,*CCCCNC(=O)c1ccc(C(=O)N*)c(Oc2ccccc2)c1 (repeat unit)
10,260.50,*C(=O)c1ccc2c(c1)C(=O)N(c1cccc(C(=O)N(C)c3ccc(N4C(=O)c5ccc(*)cc5C4=O)cc3)c1)C2=O (repeat unit)
11,85.00,*CCCCCCOc1ccc(N(c2ccccc2)c2ccc(-c3ccc(N(c4ccccc4)c4ccc(O*)cc4)cc3)cc2)cc1 (repeat unit)
12,68.00,*CC(*)(C)C(=O)OCCCOc1ccc(C(=O)Oc2ccc3ccc(=O)oc3c2)cc1 (repeat unit)
13,252.00,*c1cccc(C(O)c2cccc(N3C(=O)c4ccc(Oc5ccc6c(c5)C(=O)N(*)C6=O)cc4C3=O)c2)c1 (repeat unit)
14,33.00,*OC(=O)c1cccc(OCCCCCCCCOc2cccc(C(=O)OC3COC4C(*)COC34)c2)c1 (repeat unit)
15,265.00,*c1ccc(Cc2ccc(N3C(=O)c4ccc(Sc5ccc6c(c5)C(=O)N(*)C6=O)cc4C3=O)cc2)cc1 (repeat unit)
16,24.00,*CCOC(=O)Cc1ccc(C(=O)O*)cc1 (repeat unit)
